Source: patent publication US20220040230A1, “COMPOSITIONS AND METHODS FOR IMMUNOTHERAPIES” (The Regents of the University of California, priority 2018, published 2022)

Tests used:
OSCSCs = assay: Chemotherapy-mediated cell death of OSCSCs; format: cell-based, human
OSCCs = assay: Chemotherapy-mediated cell death of OSCCs; format: cell-based, human
[1] = tested on: NK-supernatant differentiated MP2 tumors; assay: Propidium iodide cell death assay, NK-supernatant differentiated MP2; format: cell-based, human
Protocol: (§1) P-values of <0.05 were obtained for differences between MP2 vs. PL12 and Capan at the concentrations of 10 nM, 200 nM, 600 nM, 1000 nM and […] of Paclitaxel (n=2 per each experimental condition) (FIG. 25A).
Differentiation of MP2 tumors was conducted as described previously. NK cells were treated with a combination of anti-CD16mAb (3 μg/mL) and IL-2 (1,000 U/mL) for 18 hours before supernatants were removed and used for differentiation experiments. The amounts of IFN-γ produced by activated NK cells were assess with IFN-γ ELISA (Biolegend, CA, USA). MP2 cells were differentiated with gradual daily addition of increasing amounts of NK cell supernatants (of corresponding treatments). On average, to induce differentiation, a total of 3,500 pg of IFN-γ containing supernatants were added for 4 days to induce differentiation and resistance of MP2 tumor cells to NK cell-mediated cytotoxicity. Afterwards, target cells were washed with 1×PBS, detached and used for experiments.

Capan = assay: Propidium iodide cell death assay, Capan
PL12 = assay: Propidium iodide cell death assay, PL12
MP2 [2] = assay: Propidium iodide cell death assay, MP2; format: cell-based, human; details: NAC (20 nM) 24 hours before paclitaxel
Protocol: as §1

MP2 [3] = assay: Surface expression on MP2 by flow cytometry; format: cell-based, human; details: 24 h
Protocol: MP2 cells were left untreated or treated with rhTNF-α (20 ng/mL), rhIFN-γ (200 U/mL) or the combination of rhTNF-α (20 ng/mL) and rhIFN-γ (200 U/mL) for 24 h. Afterwards, the cells were detached and the surface expression of CD44, CD54, MHC-class I and B7H1 were assessed using PE conjugated antibodies followed by flow cytometric analysis. Isotype controls were used as controls (FIG. 14A). MP2 and Capan cells were treated as described in FIG. 14A, and were detached from the tissue culture plates, labeled with ^51Cr and used in a standard 4-hour ^51Cr release assay using IL-2 (1000 U/mL) treated NK cells. Pre-treatment of NK cells with IL-2 (1000 U/ml) were carried out for 18-24 hours. Percent cytotoxicity was determined at different effector to target ratio and the lytic units 30/10^6 cells were determined using inverse number of NK cells required to lyse 30% of the tumor cells×100 (FIG. 14B).
Staining was performed by labeling the cells with antibodies as described previously. Briefly, the cells were washed twice with ice-cold PBS/1% BSA. Predetermined optimal concentrations of specific human flow cytometric antibodies were added to 1×10^4 cells in 50 μl of cold-PBS/1% BSA and cells were incubated on ice for 30 min. […] Flow cytometry analysis was performed using Beckman Coulter Epics XL cytometer (Brea, Calif.) and results were analyzed in FlowJo vX software (Ashland, Oreg.).

MP2 [4] = assay: 4-hour 51Cr release cytotoxicity / ADCC assay against MP2; format: cell-based, human; details: IL-2 treated NK cells; tumor cells treated 24 h
Protocol: The target cells (5×10^5) were labeled with 50 μCi ^51Cr (Perkin Elmer, Santa Clara, Calif.) and chromated for 1 hour. Following incubation, target cells were washed once to remove excess unbound ^51Cr. […] Following incubation, target cells were washed again to remove excess unbound antibody and ^51Cr. Labeled target cells were culture with effector cells and the cytotoxicity against target cells were assessed using ^51Cr release cytotoxicity assay.
^51Cr Release Cytotoxicity Assay ^51Cr was purchased from Perkin Elmer (Santa Clara, Calif.). Standard ^51Cr release cytotoxicity assays were used to determine NK cell cytotoxic function in the experimental cultures. […] After a 4-hour incubation period, the supernatants were harvested from each sample and counted for released radioactivity using the gamma counter. Total (containing ^51Cr labeled target cells) and spontaneous (supernatants of target cells alone) release values were measured and used to calculate the percentage specific cytotoxicity. The percentage specific cytotoxicity was calculated using the following formula: […]
Lu30/10^6 is calculated by using the inverse of the number of effector cells needed to lyse 30% of target cells×100.
The ^51Cr release assay was performed as described previously. […] The percentage specific cytotoxicity was calculated using the following formula: […]

[5] = NAC (20 nM) 24 hours before paclitaxel

Q: What does the source list for `N.N.[Cl][Pt][Cl]` [CDDP, cis-dichlorodiammineplatinum]?
A: cell death of stem-like/poorly differentiated OSCSCs (OSCSCs): minimal effects; cell death of patient-derived differentiated OSCCs (OSCCs): higher cell death

Q: With `CC(=O)N[C@@H](CS)C(=O)O` [NAC, N-Acetyl Cysteine] as the molecule, how does the “effect of NAC on cell death of NK-supernatant differentiated MP2” value [1, 5] read?
A: increased cell death

Q: What about the “effect of NAC on paclitaxel mediated cell death of Capan” value (Capan; [5]) of the same molecule?
A: increased paclitaxel mediated cell death

Q: And the “effect of NAC on paclitaxel mediated cell death of PL12” value (PL12; [5])?
A: increased paclitaxel mediated cell death

Q: And the “effect of NAC on paclitaxel mediated cell death of MP2” value (MP2 [2])?
A: increased paclitaxel mediated cell death

Q: For `CC(=O)O[C@H]1C(=O)[C@@]2(C)[C@H]([C@H](OC(=O)c3ccccc3)[C@]3(O)C[C@H](OC(=O)[C@H](O)[C@@H](NC(=O)c4ccccc4)c4ccccc4)C(C)=C1C3(C)C)[C@]1(OC(C)=O)CO[C@@H]1C[C@@H]2O` [paclitaxel], which “cell death of stem-like/poorly differentiated OSCSCs” value (OSCSCs) is on record?
A: minimal effects

Q: And the “paclitaxel mediated cell death of NK-supernatant differentiated MP2” value [1]?
A: susceptibility to paclitaxel

Q: And the “paclitaxel mediated cell death of Capan” value (Capan; compared with MP2)?
A: higher levels of cell death

Q: What about the “paclitaxel mediated cell death of PL12” value (PL12; compared with MP2) of the same molecule?
A: higher levels of cell death

Q: What about the “cell death of patient-derived differentiated OSCCs” value (OSCCs) of the same molecule?
A: higher cell death

Q: With “rhIFN-γ: Recombinant human IFN-γ from Biolegend” as the molecule, how does the “surface expression of B7H1 on MP2” value (MP2 [3]) read?
A: upregulate B7H1

Q: What about the “surface expression of CD54, MHC-class I, B7H1 and CD44 on MP2” value (MP2 [3]; rhTNF-α 20 ng/mL, rhIFN-γ 200 U/mL) of the same molecule?
A: increase surface expression of CD54 and MHC-class I

B1: rhIFN-γ: Recombinant human IFN-γ from Biolegend (protein, UniProt P01579 24-161, looked up)
Interferon gamma: QDPYVKEAENLKKYFNAGHSDVADNGTLFLGILKNWKEESDRKIMQSQIVSFYFKLFKNFKDDQSIQKSVETIKEDMNVKFFNSNKKKRDDFEKLTNYSVTDLNVQRKAIHELIQVMAELSPAAKTGKRKRSQMLFRG
Q: B1 was tested. Which “resistance of MP2 against NK cell mediated cytotoxicity” value (MP2 [4]) did it give?
A: significant resistance
